This note sets out measurements from PubChem BioAssay (NCI).

Where “and” joins values, the source holds several entries; their conditions need not be identical. Equal values may be shown once.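 Growth conditions: 96-well plates. Treatment: test compound, 48 hours, 5 concentrations. Analysis: linear interpolation between bracketing concentrations; unreached endpoints set to highest concentration. The concentration for 50% growth inhibition is given as GI50. TGI is the concentration that stops growth completely.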 Bounds are passed on as bounds.

Among the test systems are NCI-H226 lung; SW-620 colon; CAKI-1 renal; PC-3 prostate; RXF 393 renal; BT-549 breast; MCF7 breast; HS 578T breast; RPMI-8226 leukemia; HOP-92 NSCLC.
Holding throughout (assay): DTP human tumour cell line panel, 48 h

What is called TGI is the concentration at which net growth stops. Turning to `O=C(NCc1ccccc1)c1n[nH][nH]c1=O`, the concentration for total growth inhibition (TGI) with NCI-H226 lung, in the test with SW-620 colon, in the test on CAKI-1 renal, in the test on PC-3 prostate, in the test on RXF 393 renal and in the test with BT-549 breast was more than 100 µM each time. Moreover, the TGI with MCF7 breast, in the test on HS 578T breast and with RPMI-8226 leukemia was more than 100 µM in each case.
With `O=C(C1OC1c1ccc(Br)cc1O)C12CC3CC(CC(C3)C1)C2` (centres undefined), the total growth inhibition concentration (TGI) with NCI-H226 lung is more than 100 µM; in the test with HOP-92 NSCLC it was 48.8 µM; in the test with SW-620 colon, 35.4 µM; in the test with PC-3 prostate, 58.7 µM; with RXF 393 renal it was 72.4 µM; with MCF7 breast, more than 100 µM. The concentration for total growth inhibition (TGI) in the test on HS 578T breast was 47.8 µM; in the test with RPMI-8226 leukemia, 47.5 µM.
With `c1ccc2c3[nH]c(c2c1)=Nc1ccc(cc1)-c1nc2cc(ccc2o1)N=c1[nH]c(c2ccccc12)=Nc1ccc2nc(oc2c1)-c1ccc(cc1)N=3`, the TGI with SW-620 colon, with CAKI-1 renal, in the test on PC-3 prostate, in the test with RXF 393 renal, in the test on BT-549 breast and in the test on MCF7 breast was more than 100 µM throughout. In the test on HS 578T breast, this molecule had a TGI of more than 100 µM.
One may read the GI50 as the concentration that inhibits growth by half. In the case of `Cc1ccc(-c2cc(-c3ccco3)c(C#N)c(=S)n2C2OC(CO)C(O)C(O)C2O)cc1` (centres undefined), the GI50 is 13.4 µM and 32.4 µM in the test with NCI-H226 lung; 17.6 µM and > 100 µM in the test on CAKI-1 renal; 17.4 µM and > 100 µM with PC-3 prostate; 18.2 µM and 57.3 µM with BT-549 breast; 14.8 µM and 33.2 µM with HS 578T breast. In addition, the TGI was 53.9 µM and > 100 µM with NCI-H226 lung; more than 100 µM in the test on SW-620 colon; 46.9 µM and > 100 µM in the test on CAKI-1 renal; more than 100 µM in the test with PC-3 prostate; 45.4 µM and 45.3 µM in the test on RXF 393 renal; 78.5 µM and > 100 µM with BT-549 breast. For the same molecule, the TGI in the test on MCF7 breast was more than 100 µM; with HS 578T breast it was more than 100 µM; in the test with RPMI-8226 leukemia it was > 100 µM and 89.8 µM.
Take `C=C1CCN2CC[C@@H](OC(=O)/C(C)=C\C)[C@@H]12`: the total growth inhibition concentration (TGI) in the test on NCI-H226 lung, in the test on HOP-92 NSCLC, with SW-620 colon, in the test on CAKI-1 renal, in the test with PC-3 prostate and in the test on RXF 393 renal was more than 100 µM throughout. In addition, the concentration for total growth inhibition (TGI) in the test with MCF7 breast, with HS 578T breast and in the test with RPMI-8226 leukemia was more than 100 µM throughout.
For `Cc1cccc(Cn2c3c(c4cc(O)ccc42)C(=O)c2ccccc2C3=O)c1`, the TGI is more than 100 µM in the test on NCI-H226 lung; more than 100 µM with SW-620 colon; more than 100 µM in the test with CAKI-1 renal; 38.4 µM with PC-3 prostate; 21.2 µM in the test on RXF 393 renal; more than 86.7 µM with BT-549 breast. In addition, the total growth inhibition concentration (TGI) with MCF7 breast was 98.1 µM; in the test with HS 578T breast, more than 100 µM; in the test on RPMI-8226 leukemia it was more than 30.6 µM.
For the molecule `C[C@]12CC[C@H](O)CC1=CC[C@@H]1[C@@H]2CC[C@]2(C)C(=N/N)/C(=N\O)C[C@@H]12`, the total growth inhibition concentration (TGI) with NCI-H226 lung is more than 100 µM; in the test on HOP-92 NSCLC, 11.8 µM; with SW-620 colon, more than 100 µM; in the test on CAKI-1 renal, more than 100 µM; in the test with PC-3 prostate, more than 100 µM; in the test with RXF 393 renal, more than 100 µM. For the same molecule, the TGI in the test on BT-549 breast, in the test on MCF7 breast and with RPMI-8226 leukemia was more than 100 µM in each case.
As for `CC1=Nc2ccccc2OC(C)=C1N=Nc1ccc2nc(C)[nH]c2c1`, the TGI with NCI-H226 lung, in the test on HOP-92 NSCLC, with SW-620 colon, in the test on CAKI-1 renal, in the test with PC-3 prostate and in the test with RXF 393 renal was more than 100 µM throughout. Also, the total growth inhibition concentration (TGI) with BT-549 breast, in the test with MCF7 breast and in the test with RPMI-8226 leukemia was more than 100 µM each time.
Consider `N[C@@H](CCC(=O)NCP(=O)(O)O)C(=O)O`, for which the TGI in the test on SW-620 colon, in the test with PC-3 prostate, in the test with BT-549 breast, in the test with MCF7 breast, with HS 578T breast and with RPMI-8226 leukemia was more than 100 µM in each case.
As for `CC(=O)Oc1cccc2c1C(=O)CCCC2`, the TGI in the test on NCI-H226 lung, with SW-620 colon, in the test on CAKI-1 renal, in the test with PC-3 prostate, in the test on RXF 393 renal and with BT-549 breast was more than 100 µM each time. In addition, the concentration for total growth inhibition (TGI) in the test with MCF7 breast and in the test on HS 578T breast was more than 100 µM throughout.
As to `COc1cc(S(=O)(=O)Nc2nc(-c3ccc(N4C(=O)C(CC(=O)O)SC4c4cccs4)cc3)cs2)ccc1Cl` (centres undefined), the TGI in the test with NCI-H226 lung is more than 100 µM; in the test on HOP-92 NSCLC it was 89.5 µM; with SW-620 colon, 78.8 µM; in the test with CAKI-1 renal, more than 100 µM; with PC-3 prostate, more than 100 µM; in the test on RXF 393 renal it was 32.5 µM. In addition, the values for the TGI with MCF7 breast and in the test on HS 578T breast were 65.8 µM and more than 100 µM, respectively.
Turning to `COc1ccc2[nH]cc(/C=C(/C)c3ccncc3)c2c1`, the GI50 is 7.63 µM with NCI-H226 lung; 13.3 µM in the test with HOP-92 NSCLC; 2.74 µM with RXF 393 renal; 0.996 µM in the test with MCF7 breast; 2.7 µM in the test with RPMI-8226 leukemia. For the same molecule, the concentration for total growth inhibition (TGI) in the test on NCI-H226 lung was 38.6 µM and > 100 µM; in the test with HOP-92 NSCLC, > 100 µM and 52.6 µM; with SW-620 colon, 27.2 µM and > 100 µM; in the test on CAKI-1 renal it was more than 100 µM; in the test with RXF 393 renal it was 10.3 µM; in the test with MCF7 breast it was more than 100 µM. In addition, in the test with RPMI-8226 leukemia, the TGI was 16.5 µM and > 100 µM.
For the molecule `CC(=O)/C=C/C1=C(C)CCCC1(C)CC(C)C` (centres undefined), the TGI in the test with NCI-H226 lung is more than 100 µM; in the test on HOP-92 NSCLC, 37.7 µM; in the test on SW-620 colon it was 44.1 µM; with CAKI-1 renal, more than 100 µM; with PC-3 prostate, more than 100 µM; with RXF 393 renal it was 28.4 µM. The TGI in the test with MCF7 breast is 66.9 µM; with HS 578T breast it was more than 100 µM; in the test on RPMI-8226 leukemia, 36 µM.
For the molecule `Oc1ccc(Cc2cc(Cc3ccc(O)cc3)cc(Cc3ccc(O)cc3)c2)cc1`, the TGI in the test on NCI-H226 lung, in the test with SW-620 colon, in the test with PC-3 prostate, with BT-549 breast, in the test on MCF7 breast and in the test on HS 578T breast was more than 50 µM throughout. This molecule also displayed a TGI with RPMI-8226 leukemia of more than 50 µM.
